In patent US7348427B2, “Antipathogenic benzamide compounds” (Genesoft Pharmaceuticals, Inc., priority 2001, dated 2008):

Columns and labels:
[1] = tested on: S. pneumoniae ATCC 49619; test: MIC, NCCLS broth microdilution assay; format: cell-based, Streptococcus pneumoniae; details: H = S. pneumoniae ATCC 49619
Method: (§1) Compounds according to this invention were screened for their in vitro activities against selected species of bacteria and fungi. The minimal inhibition concentration (MIC) of these compounds was determined using the National Committee for Clinical Laboratory Standards (NCCLS) broth microdilution assay in microtiter plates, as set forth in: (1) the guidelines of the National. Committee for Clinical Laboratory Standards (NCCLS) Document M7-A4 (NCCLS, 1997); (2) the guidelines of the National Committee for Clinical Laboratory Standards (NCCLS) Document M11-A4 (NCCLS, 1997); and (3) the guidelines and reference method of the National Committee for Clinical Laboratory Standards (NCCLS) Document M27-T (NCCLS, 1995). For antifungal assays, the method recommended in Murray, P R., 1995 Manual of Clinical Microbiology (ASM Press, Washington, D.C.), was employed.

[2] = tested on: E. faecalis ATCC 29212; test: MIC, NCCLS broth microdilution assay; format: cell-based, Enterococcus faecalis; details: C = E. faecalis ATCC 29212
Method: as §1

[3] = tested on: Staphylococcus aureus (ATCC 27660, a methicillin resistant strain (MRSA)); test: MIC, NCCLS broth microdilution assay; format: cell-based; details: F = S. aureus ATCC 27660
From the text: (§2) In vitro biological activity data were collected for a variety of microorganisms, including Bacillus cereus (ATCC 11778), Staphylococcus aureus (ATCC 27660, a methicillin resistant strain (MRSA); ATCC 13709, a methicillin sensitive strain (MSSA)); Streptococcus pneumoniae (ATCC 51422, a penicillin resistant strain (PRSP)), Enterococcus faecium (ATCC 51559, a vancomycin resistant strain (VRE)), and Staphylococcus epidermidis (ATCC 12228). Additionally, antifungal activity data were collected for Candida albicans (ATCC 38247).
as §1

[4] = tested on: Bacillus cereus (ATCC 11778); test: MIC, NCCLS broth microdilution assay; format: cell-based; details: A = B. cereus ATCC 11778
From the text: as §2, §1

[5] = tested on: Staphylococcus aureus (ATCC 13709, a methicillin sensitive strain (MSSA)); test: MIC, NCCLS broth microdilution assay; format: cell-based; details: E = S. aureus ATCC 13709
From the text: as §2, §1

[6] = tested on: Candida albicans (ATCC 38247); test: Antifungal MIC assay; format: cell-based; details: B = C. albicans ATCC 38247
From the text: as §2, §1

Row | SMILES | Minimum Inhibitory Concentration (MIC) [1] | Minimum Inhibitory Concentration (MIC) [2] | Minimum Inhibitory Concentration (MIC) [3] | Minimum Inhibitory Concentration (MIC) [4] | Minimum Inhibitory Concentration (MIC) [5] | Minimum Inhibitory Concentration (MIC) [6]
1 | Cn1cc(NC(=O)c2cc(NC(=O)c3cc(NC(=O)c4ccc(F)cc4F)c[nH]3)cn2C)cc1C(=O)NCCN1CCOCC1 [Compound A-1] | +++ (+++ = MIC ≦ 4) | +++ (+++ = MIC ≦ 4) | ++ (++ = 4 < MIC < 12) | +++ (+++ = MIC ≦ 4) | +++ (+++ = MIC ≦ 4) | >32 µg/mL
2 | C[C@@H]1CN(CCNC(=O)c2cc(NC(=O)c3cc(NC(=O)c4cc(NC(=O)c5ccc(F)cc5F)c[nH]4)cn3C)cn2C)C[C@H](C)O1 [Compound A-5] | ++ (++ = 4 < MIC < 12) | +++ (+++ = MIC ≦ 4) | +++ (+++ = MIC ≦ 4) | + (+ = 12 ≦ MIC ≦ 32) | +++ (+++ = MIC ≦ 4) | >32 µg/mL
3 | C[C@@H]1CCC[C@H](C)N1CCNC(=O)c1cc(NC(=O)c2cc(NC(=O)c3cc(NC(=O)c4ccc(F)cc4F)c[nH]3)cn2C)cn1C [Compound A-10] | +++ (+++ = MIC ≦ 4) | ++ (++ = 4 < MIC < 12) | +++ (+++ = MIC ≦ 4) | +++ (+++ = MIC ≦ 4) | +++ (+++ = MIC ≦ 4) | ++ (++ = 4 < MIC < 12)
4 | Cn1cc(NC(=O)c2cc(NC(=O)c3cc(NC(=O)c4ccc(F)cc4F)c[nH]3)cn2C)cc1C(=O)NCCCN1CCC(O)CC1 [Compound A-11] | + (+ = 12 ≦ MIC ≦ 32) | + (+ = 12 ≦ MIC ≦ 32) | + (+ = 12 ≦ MIC ≦ 32) | + (+ = 12 ≦ MIC ≦ 32) | ++ (++ = 4 < MIC < 12) | + (+ = 12 ≦ MIC ≦ 32)
5 | CN(C)CC(C)(C)CNC(=O)c1cc(NC(=O)c2cc(NC(=O)c3cc(NC(=O)c4ccc(Cl)cc4F)c[nH]3)cn2C)cn1C [Compound A-14] | +++ (+++ = MIC ≦ 4) | +++ (+++ = MIC ≦ 4) | +++ (+++ = MIC ≦ 4) | +++ (+++ = MIC ≦ 4) | +++ (+++ = MIC ≦ 4) | + (+ = 12 ≦ MIC ≦ 32)
6 | CN(C)CCCCNC(=O)c1cc(NC(=O)c2cc(NC(=O)c3cc(NC(=O)c4ccc(Cl)cc4F)c[nH]3)cn2C)cn1C [Compound A-15] | +++ (+++ = MIC ≦ 4) | +++ (+++ = MIC ≦ 4) | +++ (+++ = MIC ≦ 4) | +++ (+++ = MIC ≦ 4) | +++ (+++ = MIC ≦ 4) | + (+ = 12 ≦ MIC ≦ 32)
7 | Cn1cc(NC(=O)c2cc(NC(=O)c3cc(NC(=O)c4ccc(Cl)cc4)c[nH]3)cn2C)cc1C(=O)NCCN1CCOCC1 [Compound A-34] | + (+ = 12 ≦ MIC ≦ 32) | ++ (++ = 4 < MIC < 12) | – | +++ (+++ = MIC ≦ 4) | – | + (+ = 12 ≦ MIC ≦ 32)
8 | Cn1cc(NC(=O)c2cc(NC(=O)c3ccc(F)cc3F)cn2C)cc1C(=O)NCCN1CCOCC1 [Compound B-2] | +++ (+++ = MIC ≦ 4) | +++ (+++ = MIC ≦ 4) | – | ++ (++ = 4 < MIC < 12) | – | >32 µg/mL
9 | Cn1cc(NC(=O)c2cc(NC(=O)c3cc(NC(=O)c4ccc(F)c(F)c4)cn3C)cn2C)cc1C(=O)NCCN1CCOCC1 [Compound B-31] | +++ (+++ = MIC ≦ 4) | +++ (+++ = MIC ≦ 4) | – | ++ (++ = 4 < MIC < 12) | – | >32 µg/mL
10 | Cn1cc(NC(=O)c2cc(NC(=O)c3cc(NC(=O)c4cccc(F)c4)cn3C)cn2C)cc1C(=O)NCCN1CCOCC1 [Compound B-38] | + (+ = 12 ≦ MIC ≦ 32) | + (+ = 12 ≦ MIC ≦ 32) | – | + (+ = 12 ≦ MIC ≦ 32) | – | >32 µg/mL
11 | Cn1cc(NC(=O)c2cc(NC(=O)c3cc(NC(=O)c4ccc(F)cc4Cl)cn3C)cn2C)cc1C(=O)NCCN1CCOCC1 [Compound B-45] | +++ (+++ = MIC ≦ 4) | ++ (++ = 4 < MIC < 12) | – | ++ (++ = 4 < MIC < 12) | – | >32 µg/mL
12 | Cn1cc(NC(=O)c2cc(NC(=O)c3cc(NC(=O)c4ccc(F)c(Cl)c4)cn3C)cn2C)cc1C(=O)NCCN1CCOCC1 [Compound B-46] | +++ (+++ = MIC ≦ 4) | +++ (+++ = MIC ≦ 4) | – | +++ (+++ = MIC ≦ 4) | – | >32 µg/mL
13 | Cn1cc(NC(=O)c2cc(NC(=O)c3cc(NC(=O)c4c(Cl)cccc4Cl)cn3C)cn2C)cc1C(=O)NCCN1CCOCC1 [Compound B-52] | >32 µg/mL | >32 µg/mL | – | >32 µg/mL | – | >32 µg/mL
14 | Cn1cc(NC(=O)c2cc(NC(=O)c3cc(NC(=O)c4ccc(Cl)cc4Cl)cn3C)cn2C)cc1C(=O)NCCN1CCOCC1 [Compound B-55] | +++ (+++ = MIC ≦ 4) | +++ (+++ = MIC ≦ 4) | – | +++ (+++ = MIC ≦ 4) | – | >32 µg/mL
15 | Cn1cc(NC(=O)c2cc(NC(=O)c3ccc(Cl)cc3)cn2C)cc1C(=O)NCCN1CCOCC1 [Compound B-57] | +++ (+++ = MIC ≦ 4) | +++ (+++ = MIC ≦ 4) | – | + (+ = 12 ≦ MIC ≦ 32) | – | >32 µg/mL
16 | Cn1cc(NC(=O)c2cc(NC(=O)c3cc(NC(=O)c4cccc(Cl)c4)cn3C)cn2C)cc1C(=O)NCCN1CCOCC1 [Compound B-59] | ++ (++ = 4 < MIC < 12) | ++ (++ = 4 < MIC < 12) | – | + (+ = 12 ≦ MIC ≦ 32) | – | >32 µg/mL
17 | Cn1cc(NC(=O)c2cc(NC(=O)c3cc(NC(=O)c4ccccc4Cl)cn3C)cn2C)cc1C(=O)NCCN1CCOCC1 [Compound B-60] | + (+ = 12 ≦ MIC ≦ 32) | + (+ = 12 ≦ MIC ≦ 32) | – | + (+ = 12 ≦ MIC ≦ 32) | – | >32 µg/mL
18 | Cn1cc(NC(=O)c2cc(NC(=O)c3cc(NC(=O)c4cccc(C(F)(F)F)c4)cn3C)cn2C)cc1C(=O)NCCN1CCOCC1 [Compound B-70] | + (+ = 12 ≦ MIC ≦ 32) | ++ (++ = 4 < MIC < 12) | – | + (+ = 12 ≦ MIC ≦ 32) | – | >32 µg/mL
19 | Cn1cc(NC(=O)c2cc(NC(=O)c3cc(NC(=O)c4ccc(C(F)(F)F)cc4)cn3C)cn2C)cc1C(=O)NCCN1CCOCC1 [Compound B-71] | +++ (+++ = MIC ≦ 4) | ++ (++ = 4 < MIC < 12) | – | + (+ = 12 ≦ MIC ≦ 32) | – | >32 µg/mL
